One experiment concerns ATF4. Briefly: ATF4 expression inhibition assay (ATF4 5'UTR luciferase reporter, Tg-stressed HEK293T cells). It counts as cell-based, human. The settings on record: for inhibition at 0.1 µM: read-out: % ATF4 inhibition at 100 nM; for IC50: read-out: ATF4 inhbition IC50; for inhibition at 1 µM: read-out: % ATF4 inhibition at 1 μM. As to the method: The ATF4 reporter was prepared by fusing the human full length 5′UTR of ATF4 (NCBI Accession No. BC022088.2) upstream of the firefly luciferase coding sequence lacking the initiator methionine. The fused sequence was cloned into pLenti-EF1a-C-Myc-DDK-IRES-Puro cloning vector (Origen #PS100085) using standard methods. Virus production was carried out by using Lenti-X™ Packaging Single Shots Protocol (Clonetech #631276). Viral particles were used to transduce HEK293T cells (ATCC #CRL-3216, ATCC Manassas, Va.), which were subsequently selected with puromycin to generate stable cell line. Cells were maintained at 37° C. and 5% CO2 in DMEM-F12 (Hyclone #SH30023.02) supplemented with 10% heat-inactivated fetal bovine serum (Gibco #16000-044), 2 mM L-glutamine (Gibco #25030-081), 100 U/ml penicillin, and 100 μg/ml streptomycin (Gibco #15140-122).
HEK293T cells carrying the ATF4 luciferase reporter were plated on 96-well plates (Nunc) at 10,000 cells per well. Cells were treated two days after seeding with 100 nM thapsigargin (Tg) (Sigma-Aldrich #T9033) in the presence of 100 nM or 1 μM. For the assessment of the half-maximal inhibitory concentration (IC50) for selected compounds, dose-response assays were performed. Compounds were serially diluted using DMSO ranging from 0.1 nM to 1 μM. Cells without treatment or cells treated with Tg alone were used as controls. Assay plates containing cells were incubated for 3 hours at 37° C.
Luciferase reactions were performed using Luciferase Assay System (Promega #E1501) as specified by the manufacturer. Luminescence was read with an integration time of 1 s and a gain of 110 using a Cytation-5 multi-mode microplate reader (BioTek). Relative luminescence units were normalized to Tg treatment (0% inhibition) and untreated cells (100% inhibition) and the percentage of ATF4 inhibition was calculated.
Percentages of ATF4 inhibition after induction with Tg in the presence of 100 nM or 1 μM of certain test compounds are shown in Table 2. Also shown in Table 2 is the calculated IC50 for certain test compounds. […] Accordingly, inhibition of ATF4 expression as a result of the test compound indicates suppression of the ISR pathway.
(In a reporter assay the amount or activity of a reporter protein is the signal.)

In experiment [1] the test system is Chinese hamster ovary (CHO) cells. As to the kind of experiment: Protein translation assay (puromycin labelling, CHO cells). Type of experiment: cell-based. The conditions noted are these: Cricetulus griseus, CHO, media alone = 100%. As to the method:
Chinese hamster ovary (CHO) cells were maintained at 37° C. and 5% CO2 in Dulbecco's Modified Eagle's Media (DMEM) supplemented with 10% fetal bovine serum, 2 mM L-glutamine, 100 U/ml penicillin, and 100 μg/ml streptomycin. After reaching 80% of confluence, cells were detached and seeded on 6 well plates in complete media, allowed to recover overnight and treated for 2 hours with 1 μM of the test compound (to assess protein synthesis levels in unstressed condition), or for 1 hour with 100 nM or 1 μM of the test compound and then co-treated with 300 nM Tg and 100 nM or 1 μM of the test compound (to assess the recovery of protein synthesis in a stressed condition). Cells treated with Tg alone were used as controls.
After the 2 hours treatments, media were replaced by adding 10 μg/ml puromycin (Sigma Aldrich #P8833) in complete media for 30 min. Media were removed and cells were lysed with SDS-PAGE lysis buffer. Lysates were transferred to 1.5 ml tubes and sonicated for 3 min and total protein amount were quantified using BCA Protein Assay Kit (Pierce). Equal amount of protein (30 μg) was loaded on SDS-PAGE gels. Proteins were transferred onto 0.2 μm PVDF membranes (BioRad) and probed with primary antibodies diluted in Tris-buffered saline supplemented with 0.1% Tween 20 (Merck #S6996184 505) and 3% bovine serum albumin (Rockland #BSA-50).
Puromycin (12D10) (Merck #MABE343) and β-actin (Sigma Aldrich #A5441) antibodies were used as primary antibody. A HRP-conjugated secondary antibody (Rockland) was employed to detect immune-reactive bands using enhanced chemiluminescence (ECL Western Blotting Substrate, Pierce). Quantification of protein bands was done by densitometry using ImageJ software.
Percent increase of protein synthesis in unstressed cells (without Tg treatment) in the presence of media alone or certain test compounds is shown in Table 3 The percentage levels were normalized to the media alone condition, which correspond to 100% protein synthesis.
Percent recovery of protein synthesis in stressed cells (with Tg treatment) due to the test compounds at 100 nM or 1 μM is also shown in Table 3. The levels were normalized to the media alone and to Tg alone conditions, which correspond to 100% and 0% respectively.

Setting [2] is: Homo sapiens, HEK-293T, 3 h, 100 nM test compound, 100 nM thapsigargin, 3 hours, HEK293T ATF4 luciferase reporter.
[3] abbreviates: Homo sapiens, HEK-293T, 3 h, 100 nM thapsigargin, 3 hours, HEK293T ATF4 luciferase reporter.
Setting [4] is: Homo sapiens, HEK-293T, 3 h, 1 μM test compound, 100 nM thapsigargin, 3 hours, HEK293T ATF4 luciferase reporter.
The mark [5] stands for this setting: 2 h, unstressed CHO cells, 1 μM, 2 hours, read-out: % Protein synthesis in unstressed cells (1 μM test compound).
[6] abbreviates: CHO cells stressed with 300 nM Tg, 1 μM compound, Tg alone = 0%, read-out: % Recovery of protein expression (1 μM test compound).

Where two headings read alike, the source gives them in different places.

`O=C(COc1ccc(Cl)c(F)c1)NN1CCN(C[C@@H](O)COc2ccc(Cl)c(F)c2)CC1` (single isomer, unassigned) [Compound 50]: in the experiment on ATF4 (setting [2]), the inhibition (commonly the percentage by which the read-out fell short of the control) at 0.1 µM was 97.2%. Besides, in the experiment with ATF4 (setting [3]), the IC50 (in general, the concentration at which inhibition is half-maximal) is 1.93 nM. In addition, the inhibition at 1 µM with ATF4 (setting [4]) was determined as 100%. Moreover, the activity at 1 µM in experiment [1] (setting [5]) was 96.8%; in experiment [1] (setting [6]), 7.4%.

For the compound `O=C(COc1ccc(Cl)c(F)c1)NN1CCN(C[C@H](O)COc2ccc(Cl)c(F)c2)CC1` (single isomer, unassigned) [Compound 51], the inhibition at 0.1 µM in the experiment on ATF4 (setting [2]) amounted to 79.3%. For the same compound, in the experiment with ATF4 (setting [3]), the 50% inhibitory concentration (IC50) was 19.8 nM. In the experiment with ATF4 (setting [4]), the inhibition at 1 µM came out at 100%. Further, the results for the activity at 1 µM in experiment [1] (setting [5]) and in experiment [1] (setting [6]) were 110% and 22.1%, respectively.

Consider `O=C(COc1ccc(Cl)c(F)c1)NN1CCC(NC[C@@H](O)COc2ccc(Cl)c(F)c2)CC1` (single isomer, unassigned) [Compound 52], for which the inhibition at 0.1 µM in the experiment with ATF4 (setting [2]) worked out at 75.3%. Moreover, the IC50 in the experiment with ATF4 (setting [3]) stood at 26.9 nM. Also, the inhibition at 1 µM with ATF4 (setting [4]) amounted to 81.2%. Moreover, the activity at 1 µM in experiment [1] (setting [5]) stood at 113%; in experiment [1] (setting [6]), 75.8%.

Consider `O=C(COc1ccc(Cl)c(F)c1)NC1CCN(NCC(O)COc2ccc(Cl)c(F)c2)CC1` (centres unmarked) [Compound 7, 2-(4-chloro-3-fluorophenoxy)-N-(1-((3-(4-chloro-3-fluorophenoxy)-2-hydroxypropyl)amino)piperidin-4-yl)acetamide], for which the inhibition at 0.1 µM with ATF4 (setting [2]) was 16.1%. The concentration for half-maximal inhibition (IC50) in the experiment on ATF4 (setting [3]) is above 1000 nM. Besides, the inhibition at 1 µM with ATF4 (setting [4]) stood at 13.9%.

Turning to `O=C(COc1ccc(Cl)c(F)c1)NC1CCN(NC(=O)c2nc3cc(Cl)ccc3s2)CC1` [Compound 9, 5-chloro-N-(4-(2-(4-chloro-3-fluorophenoxy)acetamido)piperidin-1-yl)benzo[d]thiazole-2-carboxamide], in the experiment on ATF4 (setting [2]), the inhibition at 0.1 µM is 77.1%. Besides, the IC50 in the experiment with ATF4 (setting [3]) was below 100 nM. Further, the inhibition at 1 µM in the experiment with ATF4 (setting [4]) worked out at 86.8%.

`O=C(COc1ccc(Cl)c(F)c1)NN1CCC(NC(=O)c2nc3cc(Cl)ccc3s2)CC1` [Compound 10, 5-chloro-N-(1-(2-(4-chloro-3-fluorophenoxy)acetamido)piperidin-4-yl)benzo[d]thiazole-2-carboxamide]: the inhibition at 0.1 µM with ATF4 (setting [2]) was determined as 68.2%. The concentration for half-maximal inhibition (IC50) in the experiment with ATF4 (setting [3]) was below 100 nM. Moreover, in the experiment on ATF4 (setting [4]), the inhibition at 1 µM was 87.2%.

As to `O=C(COc1ccc(Cl)c(F)c1)NC1CCN(NC(=O)C2Cc3cc(Cl)ccc3O2)CC1` (centres unmarked) [Compound 11, 5-chloro-N-(4-(2-(4-chloro-3-fluorophenoxy)acetamido)piperidin-1-yl)-2,3-dihydrobenzofuran-2-carboxamide], the inhibition at 0.1 µM with ATF4 (setting [2]) was 67.8%. For the same compound, the IC50 with ATF4 (setting [3]) is below 100 nM. The inhibition at 1 µM in the experiment with ATF4 (setting [4]) worked out at 90.5%.

Regarding `O=C(COc1ccc(Cl)c(F)c1)NN1CCC(NC(=O)C2Cc3cc(Cl)ccc3O2)CC1` (centres unmarked) [Compound 12, 5-chloro-N-(1-(2-(4-chloro-3-fluorophenoxy)acetamido)piperidin-4-yl)-2,3-dihydrobenzofuran-2-carboxamide], in the experiment with ATF4 (setting [2]), the inhibition at 0.1 µM stood at 69.4%. In addition, in the experiment on ATF4 (setting [3]), the half-maximal inhibitory concentration (IC50) was below 100 nM. Moreover, the inhibition at 1 µM with ATF4 (setting [4]) is 88.5%.

Take `O=C(NN1CCN(CC(O)COc2ccc(Cl)c(F)c2)CC1)C1Cc2cc(Cl)ccc2O1` (centres unmarked) [Compound 13, 5-chloro-N-(4-(3-(4-chloro-3-fluorophenoxy)-2-hydroxypropyl)piperazin-1-yl)-2,3-dihydrobenzofuran-2-carboxamide]: in the experiment on ATF4 (100 nM test compound, 100 nM thapsigargin, 3 hours, HEK293T ATF4 luciferase reporter), the “% ATF4 inhibition at 100 nM” value is recorded as 60.7%. In addition, in the experiment with ATF4 (100 nM thapsigargin, 3 hours, HEK293T ATF4 luciferase reporter), the half-maximal inhibitory concentration (IC50) is below 100 nM. Further, in the experiment with ATF4 (1 μM test compound, 100 nM thapsigargin, 3 hours, HEK293T ATF4 luciferase reporter), the “% ATF4 inhibition at 1 μM” value was 86.7%.

`O=C(NC1CCN(NCC(O)COc2ccc(Cl)c(F)c2)CC1)c1ccc2cc(Cl)ccc2n1` (centres unmarked) [Compound 25, 6-chloro-N-(1-((3-(4-chloro-3-fluorophenoxy)-2-hydroxypropyl)amino)piperidin-4-yl)quinoline-2-carboxamide]: the inhibition at 0.1 µM in the experiment on ATF4 (setting [2]) came out at 8.1%. In addition, the IC50 in the experiment with ATF4 (setting [3]) is above 1000 nM. In addition, the inhibition at 1 µM in the experiment with ATF4 (setting [4]) is 8.5%.

Regarding `O=C(NC1CCN(NCC(O)COc2ccc(Cl)c(F)c2)CC1)c1cc2cc(Cl)ccc2o1` (centres unmarked) [Compound 26, 5-chloro-N-(1-((3-(4-chloro-3-fluorophenoxy)-2-hydroxypropyl)amino)piperidin-4-yl)benzofuran-2-carboxamide], the inhibition at 0.1 µM in the experiment on ATF4 (setting [2]) came out at 37.5%. The inhibition at 1 µM with ATF4 (setting [4]) amounted to 49.4%.

`O=C(COc1ccc(C(F)(F)F)cc1)NC1CCN(NC(=O)COc2ccc(C(F)(F)F)cc2)CC1` [Compound 35, N,N′-(piperidine-1,4-diyl)bis(2-(4-(trifluoromethyl)phenoxy)acetamide)]: the inhibition at 0.1 µM in the experiment on ATF4 (setting [2]) was 92.1%. Moreover, the IC50 with ATF4 (setting [3]) was below 100 nM. For the same compound, the inhibition at 1 µM in the experiment on ATF4 (setting [4]) stood at 91.6%.

In the case of `O=C(COc1ccc(Cl)c([N+](=O)[O-])c1)NC1CCN(NC(=O)COc2ccc(Cl)c(F)c2)CC1` [Compound 39, 2-(4-chloro-3-fluorophenoxy)-N-(4-(2-(4-chloro-3-nitrophenoxy)acetamido)piperidin-1-yl)acetamide], in the experiment on ATF4 (Homo sapiens, HEK-293T, 3 h), the inhibition at 0.1 µM was 91%, the inhibition at 1 µM came out at 91.5% and the 50% inhibitory concentration (IC50) is below 100 nM.

Consider `O=C(NC1CCN(NCC(O)COc2ccc(Cl)c(F)c2)CC1)C1Cc2cc(Cl)ccc2O1` (centres unmarked) [Compound 70, 5-chloro-N-(1-((3-(4-chloro-3-fluorophenoxy)-2-hydroxypropyl)amino)piperidin-4-yl)-2,3-dihydrobenzofuran-2-carboxamide], for which the inhibition at 0.1 µM in the experiment on ATF4 (setting [2]) came to 0.4%. The 50% inhibitory concentration (IC50) with ATF4 (setting [3]) was above 1000 nM. The inhibition at 1 µM in the experiment with ATF4 (setting [4]) came out at 21.4%.

On to `O=C(NN1CCN(CC(O)COc2ccc(C(F)(F)F)cc2)CC1)c1ccc2cc(Cl)ccc2n1` (centres unmarked) [Compound 71, 6-chloro-N-(4-(2-hydroxy-3-(4-(trifluoromethyl)phenoxy)propyl)piperazin-1-yl)quinoline-2-carboxamide], for which, in the experiment on ATF4 (Homo sapiens, HEK-293T, 3 h), the inhibition at 0.1 µM was 83.4%, the inhibition at 1 µM was found to be 89.9% and the half-inhibitory concentration (IC50) was below 100 nM.
